Values of other authors as cited in US20190117606A1, “COMPOSITIONS COMPRISING L-THEANINE, PROANTHOCYANIDIN/S AND A CATECHIN AND USES THEREOF” (priority 2016, published 2019).

Details: in vivo

CCNC(=O)CC[C@H](N)C(=O)O [L-theanine, γ-glutamylethylamide]
Crossing of the blood-brain barrier: known to cross the blood-brain barrier | Time to peak concentrations after consumption: about one
